The results in this text go back to article PMC8708872, “Discovery of a Novel Template, 7-Substituted 7-Deaza-4′-Thioadenosine Derivatives as Multi-Kinase Inhibitors” (Pharmaceuticals, 2021).

Some results are limits rather than exact numbers.

Data set [1] deals with T1, TRKA (Homo sapiens, UniProt P04629).
T1 construct: purchased Eurofins DiscoverX Corporation
The data set can be described thus: Kinase inhibition profile, KINOMEscan 11-point dose response. The class given is binding. The following applies: for IC50: 11-point 3-fold serial dilution; for Ki: by Cheng-Prusoff equation.

For data set [2], the target named is T2, DYRK1B (Homo sapiens, UniProt Q9Y463).
T2 construct: purchased Eurofins DiscoverX Corporation
Described as above. The following applies: for IC50: 11-point 3-fold serial dilution; for Ki: by Cheng-Prusoff equation. It counts as binding.

Data set [3] concerns the target T3, DYRK1A (Homo sapiens, UniProt Q13627).
T3 construct: purchased Eurofins DiscoverX Corporation
Described as above. The following applies: for IC50: 11-point 3-fold serial dilution; for Ki: by Cheng-Prusoff equation. It counts as binding.

The subject of data set [4] is PC-3. The data set can be described thus: SRB cell proliferation inhibition assay. The following applies: human prostate cancer cells, 72 h. It counts as cell-based. The method, then:
(§1) Human lung cancer cells (A549), colorectal cancer (HCT116) cells, breast cancer cells (MDA-MB-231), liver cancer cells (SK-HEP-1), and prostate cancer cells (PC-3) were purchased from the American Type Culture Collection (Manassas, VA, USA). Human gastric cancer cells (SNU-638) were purchased from the Korean Cell Line Bank (Seoul, Korea). Cells were cultured in medium (Dulbecco’s modified Eagle’s medium for MDA-MB-231 and SK-HEP-1 cells; Roswell Park Memorial Institute 1640 for A549, HCT116, SNU-638, PC-3 cells) supplemented with penicillin-streptomycin and 10% fetal bovine serum at 37 °C in a humidified incubator with 5% carbon dioxide. Cells were seeded at a density of 4–7 × 10^4 cells/mL in 96-well culture plates, and then treated with indicated compounds for 72 h. At the end of the experiment, cells were fixed with 10% trichloroacetic acid (TCA) solution and subjected to sulforhodamine B (SRB) assay to determine cell proliferation. The percentage of cell proliferation was calculated with the following formula:Cell proliferation (%) = 100 × [(A treated − A zero day)/(A control − A zero day)], where A is the average absorbance. The IC50 values were calculated through non-linear regression analysis using TableCurve 2D v5.01 (Systat Software Inc., San Jose, CA, USA). All experiments were performed in triplicate and data shown are representative of two or three independent experiments.

Data set [5] deals with SK-HEP-1. As to the kind of experiment: SRB cell proliferation inhibition assay. It counts as cell-based. The following applies: SK-HEP1, human liver cancer cells, 72 h. As for the experimental part: as §1
For data set [6], the system named is HCT116. The data set can be described thus: SRB cell proliferation inhibition assay. The class given is cell-based. The following applies: HCT-116, human colon cancer cells, 72 h. As for the experimental part:
as §1

The test system of data set [7] is SNU638. As to the kind of experiment: SRB cell proliferation inhibition assay. The following applies: SNU-638, human stomach cancer cells, 72 h. It counts as cell-based. As for the experimental part:
as §1

In data set [8] the test system is A549. The data set can be described thus: SRB cell proliferation inhibition assay. The following applies: human lung cancer cells, 72 h. The class given is cell-based. As for the experimental part: as §1
For data set [9], the system named is MDA-MB-231. As to the kind of experiment: SRB cell proliferation inhibition assay. The class given is cell-based. The following applies: human breast cancer cells, 72 h. The method, then: as §1
In data set [10] the target is T4, CK1δ (Homo sapiens, UniProt P48730).
T4 construct: purchased Eurofins DiscoverX Corporation
The data set can be described thus: Kinase inhibition profile, KINOMEscan 11-point dose response. It counts as binding. The following applies: for IC50: 11-point 3-fold serial dilution; for Ki: by Cheng-Prusoff equation.

T1 sequence (P04629 33-796): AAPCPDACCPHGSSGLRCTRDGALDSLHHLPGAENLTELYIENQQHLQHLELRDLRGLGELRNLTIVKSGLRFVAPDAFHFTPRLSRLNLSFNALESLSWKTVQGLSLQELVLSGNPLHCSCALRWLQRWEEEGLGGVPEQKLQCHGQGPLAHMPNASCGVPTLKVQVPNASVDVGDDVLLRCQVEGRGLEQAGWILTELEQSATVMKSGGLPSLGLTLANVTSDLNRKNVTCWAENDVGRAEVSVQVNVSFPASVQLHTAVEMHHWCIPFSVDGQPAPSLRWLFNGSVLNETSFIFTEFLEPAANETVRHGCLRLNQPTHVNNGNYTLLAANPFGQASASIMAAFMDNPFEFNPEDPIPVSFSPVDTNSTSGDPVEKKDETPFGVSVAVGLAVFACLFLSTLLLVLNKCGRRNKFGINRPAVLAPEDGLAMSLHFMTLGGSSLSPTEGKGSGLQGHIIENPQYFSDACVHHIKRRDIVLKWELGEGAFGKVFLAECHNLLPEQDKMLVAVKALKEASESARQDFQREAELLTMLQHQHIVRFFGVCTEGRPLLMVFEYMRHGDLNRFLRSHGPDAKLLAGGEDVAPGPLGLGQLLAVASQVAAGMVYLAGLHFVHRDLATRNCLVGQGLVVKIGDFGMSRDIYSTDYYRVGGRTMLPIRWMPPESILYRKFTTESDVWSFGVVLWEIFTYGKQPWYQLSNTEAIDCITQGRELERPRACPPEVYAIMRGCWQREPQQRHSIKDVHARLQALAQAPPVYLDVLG
T2 sequence (Q9Y463 whole entry): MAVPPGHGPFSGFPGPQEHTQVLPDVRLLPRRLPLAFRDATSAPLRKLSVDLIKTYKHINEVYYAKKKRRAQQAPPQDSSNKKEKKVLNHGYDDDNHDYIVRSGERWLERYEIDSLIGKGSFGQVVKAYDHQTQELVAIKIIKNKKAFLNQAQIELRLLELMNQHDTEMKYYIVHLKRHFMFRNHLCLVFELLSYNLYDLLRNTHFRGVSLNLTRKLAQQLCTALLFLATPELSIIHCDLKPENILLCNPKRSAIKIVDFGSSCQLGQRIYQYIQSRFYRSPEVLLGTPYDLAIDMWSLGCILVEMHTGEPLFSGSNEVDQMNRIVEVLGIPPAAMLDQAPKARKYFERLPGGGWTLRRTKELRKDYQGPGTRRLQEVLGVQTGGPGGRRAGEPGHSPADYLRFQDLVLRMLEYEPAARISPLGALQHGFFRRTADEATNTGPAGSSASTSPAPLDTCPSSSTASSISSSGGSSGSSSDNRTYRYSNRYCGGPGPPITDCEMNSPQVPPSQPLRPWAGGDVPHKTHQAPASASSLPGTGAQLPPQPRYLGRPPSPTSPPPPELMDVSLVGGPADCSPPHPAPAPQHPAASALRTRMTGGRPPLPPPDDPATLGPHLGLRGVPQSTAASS
T4 sequence (P48730 whole entry): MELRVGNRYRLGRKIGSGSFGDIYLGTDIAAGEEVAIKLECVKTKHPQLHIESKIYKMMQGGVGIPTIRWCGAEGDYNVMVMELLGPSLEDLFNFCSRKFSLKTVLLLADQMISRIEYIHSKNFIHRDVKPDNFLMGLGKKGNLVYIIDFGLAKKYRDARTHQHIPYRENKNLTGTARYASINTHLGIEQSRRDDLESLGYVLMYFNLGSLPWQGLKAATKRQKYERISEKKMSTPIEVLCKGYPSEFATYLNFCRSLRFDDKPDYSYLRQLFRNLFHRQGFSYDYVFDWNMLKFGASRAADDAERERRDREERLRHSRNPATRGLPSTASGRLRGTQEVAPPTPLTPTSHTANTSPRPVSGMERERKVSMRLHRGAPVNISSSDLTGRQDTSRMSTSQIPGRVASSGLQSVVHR

As for `CC(C)(C)C#Cc1cn([C@@H]2S[C@H](CO)[C@@H](O)[C@H]2O)c2ncnc(N)c12` [Compound 1j, (2R,3R,4S,5R)-2-(4-Amino-5-(3,3-dimethylbut-1-yn-1-yl)-7H-pyrrolo[2,3-d]pyrimidin-7-yl)-5-(hydroxymethyl)tetrahydrothiophene-3,4-diol], the melting point (in general, the temperature, or range, at which the solid turns liquid) is 144 to 146 °C. Besides, in data set [1], half-maximal inhibition (IC50) required 0.958 µM. Besides, the half-inhibitory concentration (IC50) (commonly the concentration that gives 50% inhibition) in data set [2] is > 10 µM. Besides, the half-maximal inhibitory concentration (IC50) in [3] was > 10 µM. For the same molecule, the IC50 in data set [4] was > 50 µM. The IC50 in [5] is > 50 µM. Moreover, the IC50 in data set [6] is > 50 µM. The IC50 in [7] was > 50 µM. For the same molecule, the IC50 in data set [8] is > 50 µM. The 50% inhibitory concentration (IC50) in data set [9] was determined as 29.6 µM. In [10], half-maximal inhibition (IC50) required 1.32 µM and the Ki (as a rule, a measure of affinity in units of concentration, obtained from inhibition or displacement) was 1.32 µM.

In turn, `Nc1ncnc2c1c(-c1cccs1)cn2[C@@H]1S[C@H](CO)[C@@H](O)[C@H]1O` [Compound 1b, (2R,3R,4S,5R)-2-(4-Amino-5-(thiophen-2-yl)-7H-pyrrolo[2,3-d]pyrimidin-7-yl)-5-(hydroxymethyl)tetrahydrothiophene-3,4-diol] came in with a melting point of 166 to 172 °C. In data set [1], this molecule displayed an IC50 of 0.011 µM and an inhibitory constant (Ki) of 0.022 µM. In [2], this molecule displayed an IC50 of 0.117 µM and a Ki of 0.117 µM. In data set [3], this molecule gave an IC50 of 0.166 µM and a Ki of 0.332 µM. The same molecule had an IC50 in [4] of 2.48 µM. The molecule also had an IC50 in [5] of 1.38 µM. In [6], this molecule displayed a half-maximal inhibitory concentration (IC50) of 1.74 µM. In data set [7], this molecule displayed an IC50 of 2.41 µM. In addition, in data set [8], it took 1.65 µM to reach half-maximal inhibition (IC50). The IC50 in data set [9] amounted to 2.72 µM. Besides, in data set [10], the IC50 was found to be 0.018 µM.

For the molecule `CCC#Cc1cn([C@@H]2S[C@H](CO)[C@@H](O)[C@H]2O)c2ncnc(N)c12` [Compound 1i, (2R,3R,4S,5R)-2-(4-Amino-5-(but-1-yn-1-yl)-7H-pyrrolo[2,3-d]pyrimidin-7-yl)-5-(hydroxymethyl)tetrahydrothiophene-3,4-diol], the melting point is 161 to 162 °C. In data set [1], this molecule gave an IC50 of 0.573 µM and a Ki of 1.15 µM. Further, in data set [2], the IC50 was determined as 1.34 µM and the inhibition constant Ki came out at 1.34 µM. Also, in [3], the IC50 stood at 2.98 µM and the Ki is 5.96 µM. Further, the IC50 in data set [4] is > 50 µM. In data set [5], the half-maximal inhibitory concentration (IC50) is > 50 µM. In addition, in data set [6], the IC50 was > 50 µM. In addition, in data set [7], the IC50 was > 50 µM. In addition, the IC50 in data set [8] was > 50 µM. For the same molecule, the IC50 in data set [9] is > 50 µM. In data set [10], this molecule yielded an IC50 of 0.43 µM and a Ki of 0.43 µM.

On to LH 846 [reference compound], for which the IC50 in data set [1] was > 10 µM; in data set [2], > 10 µM; in data set [3], > 10 µM; in [10] it was 0.08 µM.

Consider `Nc1ncnc2c1c(-c1ccco1)cn2[C@@H]1S[C@H](CO)[C@@H](O)[C@H]1O` [Compound 1a, (2R,3R,4S,5R)-2-(4-Amino-5-(furan-2-yl)-7H-pyrrolo[2,3-d]pyrimidin-7-yl)-5-(hydroxymethyl)tetrahydrothiophene-3,4-diol], for which the melting point lay in the range of 197 to 199 °C. In data set [1], the IC50 was found to be 0.037 µM and the affinity corresponds to a Ki of 0.074 µM. For the same molecule, in data set [2], 0.014 µM corresponded to half-maximal inhibition (IC50) and the Ki turned out to be 0.014 µM. For the same molecule, in data set [3], the IC50 was 0.015 µM and the Ki was 0.03 µM. The molecule also returned an IC50 in data set [4] of 2.46 µM. The molecule further showed an IC50 in data set [5] of 3.38 µM. The molecule further came in with an IC50 in data set [6] of 2.16 µM. This molecule also yielded an IC50 in [7] of 1.95 µM. This molecule also yielded an IC50 in [8] of 1.02 µM. Also, the IC50 in data set [9] stood at 3.31 µM. In data set [10], this molecule had an IC50 of 0.123 µM and a Ki of 0.123 µM.

Molecule `Nc1ncnc2c1c(-c1ccccc1)cn2[C@@H]1S[C@H](CO)[C@@H](O)[C@H]1O` [Compound 1d, (2R,3R,4S,5R)-2-(4-Amino-5-phenyl-7H-pyrrolo[2,3-d]pyrimidin-7-yl)-5-(hydroxymethyl)tetrahydrothiophene-3,4-diol] showed a melting point of 102 to 104 °C. Besides, in data set [1], 0.157 µM corresponded to half-maximal inhibition (IC50) and the affinity, expressed as Ki, was 0.314 µM. Also, in data set [2], the IC50 was found to be 0.288 µM and the Ki amounted to 0.288 µM. For the same molecule, in data set [3], the midpoint of inhibition, the IC50, lay at 0.357 µM and the Ki was found to be 0.714 µM. The same molecule gave an IC50 in data set [4] of 9.21 µM. Also, in data set [5], half-maximal inhibition (IC50) required 7.81 µM. Besides, in data set [6], the IC50 is 6.35 µM. Half-maximal inhibition in data set [7] (IC50) required 6.32 µM. Moreover, the IC50 in [8] was 7.57 µM. In data set [9], the IC50 was found to be 8.83 µM. In [10], this molecule yielded an IC50 of 0.027 µM and a Ki of 0.027 µM.

`CCS(=O)(=O)Nc1ccc(-c2cn(C3SC(CO)C(O)C3O)c3ncnc(N)c23)cc1` (stereo not drawn) [Compound 1f, N-(4-(4-Amino-7-(3,4-dihydroxy-5-(hydroxymethyl)tetrahydrothiophen-2-yl)-7H-pyrrolo[2,3-d]pyrimidin-5-yl)phenyl)ethanesulfonamide] came in with a melting point of 127 to 132 °C. Besides, the IC50 in data set [1] is > 10 µM. Moreover, in data set [2], the IC50 was > 10 µM. The concentration for half-maximal inhibition (IC50) in data set [3] is > 10 µM. Moreover, the midpoint of inhibition in [4], the IC50, lay at 15.4 µM. Also, half-maximal inhibition in data set [5] (IC50) required 10.3 µM. This molecule displayed an IC50 in data set [6] of 30.6 µM. The molecule further returned an IC50 in data set [7] of 27.5 µM. Further, the IC50 in data set [8] came to 41.6 µM. Moreover, the IC50 in data set [9] came to 30.1 µM. In [10], the IC50 was 0.91 µM and the Ki was found to be 0.91 µM.

Consider `Nc1ncnc2c1c(-c1ccc(N3CCS(=O)(=O)CC3)cc1)cn2C1SC(CO)C(O)C1O` (stereo not drawn) [Compound 1e, 4-(4-(4-Amino-7-(3,4-dihydroxy-5-(hydroxymethyl)tetrahydrothiophen-2-yl)-7H-pyrrolo[2,3-d]pyrimidin-5-yl)phenyl)thiomorpholine 1,1-dioxide], for which the melting point fell in the range of 188 to 192 °C. Further, in data set [1], the IC50 is > 10 µM. In addition, the IC50 in data set [2] is > 10 µM. Moreover, the IC50 in data set [3] was > 10 µM. Further, the IC50 in data set [4] was > 50 µM. The IC50 in data set [5] was > 50 µM. Also, the IC50 in data set [6] was > 50 µM. Further, in data set [7], the IC50 is > 50 µM. Also, the IC50 in data set [8] is > 50 µM. Moreover, the IC50 in data set [9] is > 50 µM. For the same molecule, the IC50 in data set [10] was > 10 µM.

With `COc1ccc2c(c1)[nH]c1c(C)nccc12` [Harmine, reference compound], the IC50 in data set [1] was > 10 µM.

Regarding `Cc1ccc(NC(=O)Nc2cc(C(F)(F)F)ccc2F)cc1Nc1ccc2c(c1)NC(=O)/C2=C\c1ccc[nH]1` [GNF 5837, reference compound], the IC50 in data set [1] was 0.177 µM; in data set [2], > 10 µM; in data set [3], > 10 µM; in data set [10], > 10 µM.

Take `Nc1ccn([C@@H]2O[C@H](CO)[C@@H](O)C2(F)F)c(=O)n1` [Gemcitabine, reference compound]: the IC50 in data set [4] is 3.6 µM; in [5], 0.2 µM; in data set [6], 0.2 µM; in data set [7], 0.1 µM; in data set [8], 0.3 µM; in data set [9], 1.1 µM.

On to `COc1cc([C@@H]2c3cc4c(cc3[C@@H](O[C@@H]3O[C@@H]5CO[C@@H](C)O[C@H]5[C@H](O)[C@H]3O)[C@H]3COC(=O)[C@H]23)OCO4)cc(OC)c1O` [Etoposide, reference compound], for which the IC50 in data set [4] stood at 23.4 µM; in [5] it was 0.91 µM; in data set [6], 1.11 µM; in data set [7], 0.41 µM; in data set [8] it was 0.36 µM; in [9] it was 4.9 µM.

In the case of `COc1ncc2cc(C(=O)Nc3cc(C(=O)NCc4cccc(Cl)c4)ccc3Cl)c(=O)[nH]c2n1` [TC-S 7004, reference compound], the half-maximal inhibitory concentration (IC50) was > 10 µM in data set [1], 0.022 µM in [2], < 0.01 µM in data set [3] and > 10 µM in data set [10]. In [2], this molecule yielded a Ki of 0.022 µM.

For the molecule `Cc1nccc(-c2cn(Cc3ccccc3)c3cnccc23)n1` [AZ Dyrk1B 33, reference compound], the IC50 in data set [1] is > 10 µM; in [2], 0.05 µM; in data set [3], 0.014 µM; in data set [10], > 10 µM. Besides, the results for the inhibition constant Ki in data set [2] and in [3] were 0.05 µM and 0.028 µM, respectively.
